Entries after “also recorded” stand apart in the source; their conditions may differ. Where a SMILES comes first, the peptide text is derived from it. [ ]: non-standard residue; d: D form. The star is where a group is joined. Sta = CC(C)C[C@H](N)[C@@H](O)CC(=O)O; Isovaleryl = CC(C)CC(=O)*
Assays:
Assay type in all cases: biochemical, human
[1] = tested on: serine and/or cysteine proteinases cleaving Y63 and F62 of the β2-microglobulin long chain; test: Inhibition of cleavage of Y63 and F62 on the long chain (I1-Y63) of cleaved β2-microglobulin; settings: occurs even at pH 6; EDTA 20 mmol/L
Description: Further confirmed non-tryptic cleavage sites on the long chain occur at F62 and then at S61, resulting in three major forms of long chains with calculated molecular weights of 7358.19 Da (I1-Y63), 7195.01 Da (I1-F62) and 7047.83 Da (I1-S61) (see FIG. 25B). […] In addition, three cleavage sites on the long chain have been identified by μLC-MS/MS (F22, N24 and C25), however, the resulting fragments were not detectable by SELDI-TOF-MS.

[2] = tested on: protease family responsible for β2-microglobulin cleavage in urine; test: Determination of the protease family responsible for β2-microglobulin cleavage (urine spiked with intact β2-microglobulin and protease inhibitors, SELDI-TOF-MS); settings: urine at pH 5, intact β2-microglobulin 10 mg/L, 37° C.; pepstatin 14.5 μM, Complete-Mini (EDTA-free) 0.2 tablets/mL, EDTA 20 mM
Experimental: These samples were then analysed by SELDI-TOF-MS immediately (column 1) and after 6 hours of incubation at 37° C. (column 2).
One mL of a urine sample from a healthy individual (total protein 110 mg/L, creatinine 18.9 mM, pH 5) and 1 mL of a urine sample from a patient with an acute clinical rejection episode showing the protein peak clusters (total protein 230 mg/L, creatinine 11.6 mM, pH 5) were incubated for 16 hours at 37° C. to degrade existing intact and cleaved β2-m. Four hundred μL of each sample were mixed with sodium acetate pH 5 (final concentration 166 mM) to ensure, stable pH and divided into four portions of 100 μL. Pepstatin (final concentration 14.5 μM), Complete-Mini (EDTA-free) (final concentration 0.2 tablets/mL), EDTA (final concentration 20 mM) or no protease inhibitors were added to each portion. Another 100 μL of each urine sample was brought to pH 6 by adding MES pH 6 (final concentration 166 mM). […] SELDI-TOF-MS analysis was performed immediately and after 1, 2, 4, 6 and 24 hours of incubation at 37° C.

[3] = tested on: aspartic proteinase(s) performing initial cleavage of intact urinary β2-microglobulin; test: Inhibition of initial cleavage of intact urinary β2-microglobulin in patient urine at pH 4.5 (SELDI-TOF-MS); settings: patient urine brought to pH 4.5
Experimental: Pepstatin is a well-established inhibitor of aspartic proteinases. […] Different proteinase-inhibitors were added (Pepstatin and Complete Mini EDTA-free, both from Roche, Switzerland).

SMILES | Inhibition of the cleavage of the two amino acids Y63 and F62 on the long chain [1] | Inhibition of cleavage of intact β2-microglobulin [2] | Detectability of the intact form of β2-microglobulin after 6 to 24 hours in urine spiked with proteinase inhibitor [3]
O=C(O)CN(CCN(CC(=O)O)CC(=O)O)CC(=O)O [EDTA] | not | not | 
CC(C)CC(=O)N[C@H](C(=O)N[C@H](C(=O)N[C@@H](CC(C)C)[C@@H](O)CC(=O)N[C@@H](C)C(=O)N[C@@H](CC(C)C)[C@@H](O)CC(=O)O)C(C)C)C(C)C [Pepstatin] (Isovaleryl-VV[Sta]A[Sta]-OH) | not | could prevent β2-microglobulin cleavages; also recorded: could be inhibited; also recorded: could inhibit β2-microglobulin cleavage | still detectable in unchanged intensity; also recorded: can be inhibited

From patent publication US20090093010A1, “Method of Detecting Kidney Dysfunction” (University of Manitoba, priority 2004, published 2009)
